Earlier results, collected in patent US20240016419A1, “ELECTROCHEMICAL GLUCOSE SENSING BY EQUILIBRIUM GLUCOSE BINDING TO GENETICALLY ENGINEERED GLUCOSE BINDING PROTEINS” (Cercacor Laboratories, Inc., priority 2022, published 2024).

Q: For “A213R: GGBP with Alanine residue at the 213 position changed to an Arginine residue”, which binding constant shift (A213R versus wild-type GGBP, from 0.2 μM to 1 mM) is on record?
A: 5000 fold

Q: And the Kd (binding to glucose, read-out: binding constant)?
A: 1000 µM
